From patent US20090012085A1, “DOSAGE FORMS AND METHODS OF TREATMENT USING A TYROSINE KINASE INHIBITOR” (priority 2005, published 2009)
Read-outs that look alike come from different tables or passages of the source.

Experiment: Phase I dose-escalating study, plasma pharmacokinetics in patients with solid tumor
Assay type: in vivo, human
Conditions: human, plasma; for concentration at 3 h: nominal time 3 h; for concentration at 6 h: nominal time 6 h; for concentration at 8 h: nominal time 8 h; for concentration at 10 h: nominal time 10 h; for concentration at 4 h: nominal time 4 h; for concentration at 0 h: nominal time 0 h; for concentration at 1 h: nominal time 1 h; for concentration at 2 h: nominal time 2 h; for concentration at 20 h: nominal time 20 h; for concentration at 48 h: nominal time 48 h; for concentration at 72 h: nominal time 72 h; for concentration at 96 h: nominal time 96 h; for concentration at 144 h: nominal time 144 h; for AUC(0-t): read-out: AUC(0-24), mean (% CV); for Cmax: read-out: Cmax, mean (% CV); for Tmax: read-out: tmax, mean (% CV); for half-life: read-out: t½, mean (% CV) (converted)
Protocol: Cmax values, or maximum total plasma concentrations, of a compound of formula 1 can be measured according to techniques well known to those skilled in the art. For example, after a compound of formula 1 has been administered to a mammal, blood samples can be taken at fixed time points over a period of time (e.g. 24 hours) and the serum or plasma concentration of compound of formula 1 can be measured using standard analytical techniques known in the art. In vivo determinations Cmax can then be made by plotting the serum or plasma concentration of compound of formula 1 along the ordinate (y-axis) against time along the abscissa (x-axis).
The maleate salt of compound 1 was administered to human patients with solid tumor malignancies not amenable to conventional therapies in a Phase I dose-escalating multicenter study. The types of tumor malignancies included colorectal carcinoma, renal cell carcinoma, esophageal carcinoma, thymus carcinoma, mastocytosis, lung cancer and multiple endocrine neoplasia type II. Patients were treated in cohorts of 6 with escalating QD (once per day) doses of the maleate salt of compound 1 under fasting conditions. Each study cycle of 5 weeks consisted of 4 weeks of treatment followed by 1 week of rest (4/1 schedule), or continuous dosing without any rest period.
Full pharmacokinetic profiles were collected on Cycle 1 Day 1 (C1D1), Cycle 1 Day 28 (C1D28), and Cycle 2 Day 28 (C2D28). Preliminary pharmacokinetic parameters for the first 44 patients, i.e. the first 7 dosing groups, were estimated using nominal collection times and quality-controlled, non-quality assured bioanalytical data. The dosage amounts in Table 1A and Table 1B are free base equivalent amounts.

[1] = 150 mg QD, 150 mg QD 4/1 (n = 5), read-out: Mean plasma concentration following the last dose on cycle 1 day 28
[2] = 150 mg QD, 150 mg QD Continuous (n = 6), read-out: Mean plasma concentration following the last dose on cycle 1 day 28
[3] = 150 mg, 150 mg QD 4/1 (n = 5), read-out: Mean plasma concentration following the last dose on cycle 1 day 28
[4] = 150 mg, 150 mg QD (4/1), C1D1 (n = 7)
[5] = 150 mg, 150 mg QD (4/1), C1D28 (n = 5)
[6] = 150 mg, 150 mg QD (4/1), C2D28 (n = 4)
[7] = 150 mg, 150 mg QD Continuous (n = 6), read-out: Mean plasma concentration following the last dose on cycle 1 day 28
[8] = 200 mg QD, 200 mg QD 4/1 (n = 5), read-out: Mean plasma concentration following the last dose on cycle 1 day 28
[9] = 200 mg, 200 mg QD 4/1 (n = 5), read-out: Mean plasma concentration following the last dose on cycle 1 day 28
[10] = 200 mg, 200 mg QD (4/1), C1D1 (n = 6)

concentration at 3 h [1]: 268 ng/mL | concentration at 6 h [1]: 161 ng/mL | concentration at 8 h [1]: 142 ng/mL | concentration at 10 h [1]: 132 ng/mL | concentration at 3 h [2]: 407 ng/mL | concentration at 4 h [2]: 519 ng/mL | concentration at 6 h [2]: 471 ng/mL | concentration at 8 h [2]: 404 ng/mL | concentration at 10 h [2]: 345 ng/mL | concentration at 0 h [3]: 99.8 ng/mL | concentration at 1 h [3]: 184 ng/mL | concentration at 2 h [3]: 252 ng/mL | concentration at 4 h [3]: 231 ng/mL | concentration at 20 h [3]: 42.9 ng/mL | concentration at 24 h (150 mg, 150 mg QD 4/1 (n = 5), nominal time 24 h, read-out: Mean plasma concentration following the last dose on cycle 1 day 28): 94.8 ng/mL | concentration at 48 h [3]: 31.2 ng/mL | concentration at 72 h [3]: 9.08 ng/mL | concentration at 96 h [3]: 4.17 ng/mL | concentration at 144 h [3]: 1.52 ng/mL | AUC(0-t) [4]: 3370 ng·h/mL | concentration at 24 h (150 mg, 150 mg QD (4/1), C1D1 (n = 7), read-out: C(trough, 24 h), mean (% CV)): 81.7 ng/mL | Cmax [4]: 421 ng/mL | Tmax [4]: 1.6 h | half-life [4]: 13.6 h | AUC(0-t) [5]: 2960 ng·h/mL | concentration at 24 h (150 mg, 150 mg QD (4/1), C1D28 (n = 5), read-out: C(trough, 24 h), mean (% CV)): 75.8 ng/mL | Cmax [5]: 299 ng/mL | Tmax [5]: 1.8 h | half-life [5]: 19.3 h | AUC(0-t) [6]: 3090 ng·h/mL | concentration at 24 h (150 mg, 150 mg QD (4/1), C2D28 (n = 4), read-out: C(trough, 24 h), mean (% CV)): 54.6 ng/mL | Cmax [6]: 269 ng/mL | Tmax [6]: 3 h | half-life [6]: 13.2 h | concentration at 0 h [7]: 124 ng/mL | concentration at 1 h [7]: 244 ng/mL | concentration at 2 h [7]: 453 ng/mL | concentration at 20 h [7]: 104 ng/mL | concentration at 24 h (150 mg, 150 mg QD Continuous (n = 6), nominal time 24 h, read-out: Mean plasma concentration following the last dose on cycle 1 day 28): 271 ng/mL | concentration at 3 h [8]: 396 ng/mL | concentration at 4 h [8]: 441 ng/mL | concentration at 6 h [8]: 463 ng/mL | concentration at 8 h [8]: 349 ng/mL | concentration at 10 h [8]: 361 ng/mL | concentration at 0 h [9]: 353 ng/mL | concentration at 1 h [9]: 408 ng/mL | concentration at 2 h [9]: 408 ng/mL | concentration at 20 h [9]: 189 ng/mL | concentration at 24 h (200 mg, 200 mg QD 4/1 (n = 5), nominal time 24 h, read-out: Mean plasma concentration following the last dose on cycle 1 day 28): 259 ng/mL | concentration at 48 h [9]: 87.6 ng/mL | concentration at 72 h [9]: 31.4 ng/mL | concentration at 96 h [9]: 13 ng/mL | concentration at 144 h [9]: 4.77 ng/mL | AUC(0-t) [10]: 3440 ng·h/mL | concentration at 24 h (200 mg, 200 mg QD (4/1), C1D1 (n = 6), read-out: C(trough, 24 h), mean (% CV)): 147 ng/mL | Cmax [10]: 262 ng/mL | Tmax [10]: 8.7 h
SMILES: Cc1[nH]c(/C=C2\C(=O)Nc3ccc(F)cc32)c(C)c1C(=O)NC[C@H](O)CN1CCOCC1 [compound 1, 5-[(Z)-(5-fluoro-2-oxo-1,2-dihydro-3H-indol-3-ylidene)methyl]-N-[(2S)-2-hydroxy-3-morpholin-4-ylpropyl]-2,4-dimethyl-1H-pyrrole-3-carboxamide]
